Test [1] concerns MU50 multidrug-resistant Staphylococcus aureus strain (MRSA). In words: Minimum inhibitory concentration (MIC) on MU50. Format: cell-based. An excerpt:
For some of the experimental tests MU50 bacteria were used. MU50 is a multidrug-resistant Staphylococcus aureus strain (MRSA). MRSA are bacteria which have naturally evolved under antibiotic selection pressure and which are known to be resistant to antibiotics including penicillins (methicillin, dicloxacillin, nafcillin, oxacillin, etc.) and cephalosporins. MU50 is additionally resistant to macrolides, quinolones and aminoglycosides.
The minimum inhibitory concentration (MIC), which inhibits the visible growth of a microorganism after an overnight incubation was determined for the following antibiotics: […]

The test system of test [2] is Acinetobacter. In words: Experiment 12: replication on antibiotic agar after pulsed 400 nm irradiation. Format: cell-based. The conditions noted are these: 24 hours incubation; for C: Acinetobacter (no irradiation), replication: antibiotic 10 mg/l in MH agar; for D Acinetobacter (irradiation), replication: antibiotic 10 mg/l, 400 nm LED pulses 0.02 ms, 1 kHz, 10 minutes. Here is the method:
(§1) 15′000′000 multi-resistant bacteriae (0.050 ml of a McFarland of 1) were put on 40 mm diameter petri dishes. The petri dishes comprised MH agar with or without antibiotic.
(§2) […]. The LED power during 0.02 ms was measured to be 0.63 W on a Thorlabs power sensor with a surface area of 2.2×2.2 mm representing a power of 13 mW/cm^2.

In test [3] the test system is Pseudomonas aeruginosa. The description is as above. Format: cell-based. The conditions noted are these: 24 hours incubation; for A: Pseudomonas aeruginosa (no irradiation), replication: antibiotic 10 mg/l in MH agar; for B: Pseudomonas aeruginosa (irradiation), replication: antibiotic 10 mg/l, 400 nm LED pulses 0.02 ms, 1 kHz, 10 minutes. Here is the method:
as §1, §2

Test [4] relates to Staphylococcus aureus MU500. It is filed as cell-based. Here is the method:
as §1
(§3) The LED power during 0.02 ms was measured to be 0.63 W on a Thorlabs power sensor with a surface area of 2.2×2.2 mm representing a power of 13 mW/cm^2.
(§4) After the irradiation treatment according to experiment 12, remaining bacteria were allowed to proliferate and then were subject to the treatment according to experiment 12 again in order to test for possible new resistances to the treatment. The values in the following table are designated as in experiment 12: […]

Test [5] deals with Acinetobacter. It is filed as cell-based. The conditions noted are these: for D Acinetobacter (irradiation), replication, second treatment / C: Acinetobacter (no irradiation), replication, second treatment: remaining bacteria of experiment 12 proliferated and treated again. Here is the method: as §1, §3, §4
Test [6] has as its system PA01 Pseudamonas aeruginosa MultiR genetically modified bacteria. In words: Experiment 8: growth of PA01 after pulsed 400 nm photo-activation of antibiotics. Format: cell-based. The conditions noted are these: antibiotic concentration per the 12th table. Here is the method: (§5) In Experiments 7 to 9 the effect of some exemplary photo-activated antibiotics is tested on two different multi resistant bacterial strains:
(§6) In Experiment 8 and 9 PA01 Pseudamonas aeruginosa MultiR genetically modified bacteria were tested. This PA01 strain is genetically modified with a quinolone pump and conferring resistance to antibiotics of the quinolone group of antibiotics.
(§7) G→Pulse ON 5 ms energy 0.05 J, OFF 45 ms during 10 minutes
(§8) The following experimental procedure are the same for experiments 7, 8 and 9: The bacterial cells were grown in Mueller Hinton Broth in the presence of an antibiotic at a concentration according to the table below until they reached turbidity of 1 according to the McFarland Standard (=3×10^8 bacteria/ml):
(§9) For each antibiotic two patterns of pulsed exposure for photo-activation were applied and a control without exposure to radiation. For example in experiment 7 and 8, pulse ON 10 ms energy 0.1 J, OFF 90 ms during 10 minutes and pulse ON 5 ms energy 0.05 J, OFF 45 ms i.e. in both treatments a 10% ON and a 90% OFF pattern and both for a duration of 10 minutes.
(§10) Incubation for 2 to up 36 hours at 37° C. until time=t2
(§11) At time=t2 one of the antibiotics is added to obtain the same concentration of antibiotic as during the original growth phase prior to time t1=0 as listed in the table above.
(§12) Incubation for further 2 to 4 hours at 37° C. in the presence of antibiotic until time=t3.
(§13) The absorbance value correlates to the colloidal effect and the number of bacteria in the sample.
(§14) These tables below list for each bacterial sample the difference in absorption values representing the difference in the number of bacteria present in each sample by subtracting the absorption values at time t4, which is the last measurement of the growth curve presented in FIGS. 3 to 5 from the last absorption value before the treatment with light at time t3. The values of A and G represent the effect of the treatment of the bacterial samples with two different light patterns for activation of the antibiotic as described above. The values of D correspond to the control samples without photo-activation of the antibiotic: […]

Test [7] concerns MU 50 multi-resistant bacteria. In words: Experiment 7: growth of MU50 after pulsed 400 nm photo-activation of antibiotics. Format: cell-based, Staphylococcus aureus. The protocol:
as §5
In Experiment 7 MU 50 multi-resistant bacteria as described above for Experiments 1 to 3 were tested.
as §7, §8, §9, §10, §11, §12, §13, §14

In test [8] the test system is Staphylococcus aureus MU500. In words: Experiment 12: replication on antibiotic agar after pulsed 400 nm irradiation. It is filed as cell-based. The conditions noted are these: 24 hours incubation; for E: Staphylococcus aureus MU500 (no irradiation), replication: antibiotic 10 mg/l in MH agar; for F: Staphylococcus aureus MU500 (irradiation), replication: antibiotic 10 mg/l, 400 nm LED pulses 0.02 ms, 1 kHz, 10 minutes. The protocol: as §1, §3

In test [9] the test system is PA01 Pseudamonas aeruginosa MultiR genetically modified bacteria. In words: Experiment 9: growth of PA01 after pulsed 400 nm photo-activation, shorter pulses. It is filed as cell-based. The conditions noted are these: antibiotic concentration per the 13th table. Here is the method:
as §5, §6
A→Pulse ON 3 ms energy 0.03 J, OFF 27 ms during 10 minutes
G→Pulse ON 1 ms energy 0.01 J, OFF 9 ms during 10 minutes
as §8, §9, §10, §11, §12, §13, §14

Where [10] appears, read: remaining bacteria of experiment 12 proliferated and treated again.
Setting [11] is: second treatment according to experiment 12.
[12] abbreviates: A: 400 nm LED pulse ON 10 ms energy 0.1 J, OFF 90 ms during 10 minutes.
[13] abbreviates: G: 400 nm LED pulse ON 5 ms energy 0.05 J, OFF 45 ms during 10 minutes.
Where [14] appears, read: A: 400 nm LED pulse ON 10 ms energy 0.1 J, OFF 90 ms during 10 minutes, antibiotic concentration per the 11th table, approx. ten hours after t3.
Setting [15] is: D: control no pulse, antibiotic concentration per the 11th table.
Where [16] appears, read: G: 400 nm LED pulse ON 5 ms energy 0.05 J, OFF 45 ms during 10 minutes, antibiotic concentration per the 11th table.
Where [17] appears, read: Staphylococcus aureus, MRSA, overnight incubation, read-out: MIC.

Consider nine compounds from patent US20160120979A1, “METHOD OF APPLYING A COMPOSITION AND PHARMACEUTICAL COMPOSITION WITH A REGIMEN OF ADMINISTERING IT” (priority 2013, published 2016).

In brackets after ≈: the same amount, converted by molar mass. Like-named read-outs stand apart in the source and are kept apart here.

The term MIC denotes the least concentration at which growth counts as inhibited.

Compound Teicopanin gave an MIC in [1] (overnight incubation) of 8 µg/mL.
For Penicillin, the MIC in test [1] (overnight incubation) was above 8 µg/mL.
In the case of `CN[C@H](CC(C)C)C(=O)N[C@H]1C(=O)N[C@@H](CC(N)=O)C(=O)N[C@H]2C(=O)N[C@H]3C(=O)N[C@H](C(=O)N[C@H](C(=O)O)c4cc(O)cc(O)c4-c4cc3ccc4O)[C@H](O)c3ccc(c(Cl)c3)Oc3cc2cc(c3O[C@@H]2O[C@H](CO)[C@@H](O)[C@H](O)[C@H]2O[C@H]2C[C@](C)(N)[C@H](O)[C@H](C)O2)Oc2ccc(cc2Cl)[C@H]1O` [Vancomycin], the lowest concentration to inhibit growth in [1] (Staphylococcus aureus, MRSA) (MIC) was 8 µg/mL (≈ 5.52 µM).
For Gentamicin, in test [1] (overnight incubation), the MIC was above 16 µg/mL.
For `C[C@H]1c2cccc(O)c2C(=O)C2=C(O)[C@]3(O)C(=O)C(C(N)=O)=C(O)[C@@H](N(C)C)[C@@H]3[C@@H](O)[C@@H]21` [Doxycycline], the “C: Acinetobacter (no irradiation), replication” value in test [2] is “R (Bacteria can replicate after the treatment)”. In addition, in test [2], the “D Acinetobacter (irradiation), replication” value is “NR (No replication)”. For the same compound, in test [3], the “A: Pseudomonas aeruginosa (no irradiation), replication” value was “R (Bacteria can replicate after the treatment)”. Besides, the “B: Pseudomonas aeruginosa (irradiation), replication” value (“B: Pseudomonas aeruginosa” below) in test [3] was “NR (No replication)”. For the same compound, in test [4] (remaining bacteria of experiment 12 proliferated and treated again, irradiation), the “F: Staphylococcus aureus MU500 (irradiation), replication, second treatment” value was “NR (No replication)”. Moreover, the “E: Staphylococcus aureus MU500 (no irradiation), replication, second treatment” value in [4] (setting [10]) is “R (Bacteria can replicate after the treatment)”. The “resistance to the treatment of the second generation resistant bacteria” value in [4] (setting [11]) and in [5] (setting [11]) was “no resistance to the treatment” each time. For the same compound, in [5], the “D Acinetobacter (irradiation), replication, second treatment” value was “NR (No replication)”. The “C: Acinetobacter (no irradiation), replication, second treatment” value in test [5] is “R (Bacteria can replicate after the treatment)”. For the same compound, the “difference in absorption values (595-600 nm) between t4 and t3” value (shortened to “difference in absorption values”) in test [6] (setting [12]) was −0.0365; in test [6] (D: control no pulse), 0.0735; in test [6] (setting [13]) it was 0.0181; in test [7] (setting [14]), −0.083; in test [7] (setting [15]), 0.0072; in [7] (setting [16]), −0.0429. The “E: Staphylococcus aureus MU500 (no irradiation), replication” value in test [8] is recorded as “R (Bacteria can replicate after the treatment)”. For the same compound, the “F: Staphylococcus aureus MU500 (irradiation), replication” value in test [8] is on record as “NR (No replication)”.
Regarding `CO[C@H]1/C=C/O[C@@]2(C)Oc3c(C)c(O)c4c(O)c(c(/C=N/N5CCN(C)CC5)c(O)c4c3C2=O)NC(=O)/C(C)=C\C=C\[C@H](C)[C@H](O)[C@@H](C)[C@@H](O)[C@@H](C)[C@H](OC(C)=O)[C@@H]1C` [Rifampicin], the “difference in absorption values” value in test [9] (A: 400 nm LED pulse ON 3 ms energy 0.03 J, OFF 27 ms during 10 minutes) is on record as −0.0808; in [9] (D: control no pulse), 0.0562; in test [9] (G: 400 nm LED pulse ON 1 ms energy 0.01 J, OFF 9 ms during 10 minutes), −0.0196; in [6] (setting [12]), 0.0137; in test [6] (D: control no pulse), 0.0679; in test [6] (setting [13]), −0.0678. Also, the “difference in absorption values” value in test [7] was −0.0542; in [7] (10 min), −0.0914; in test [7] (10 h) it was −0.1027.
For the compound `O=C(O)c1cn(C2CC2)c2cc(N3CCNCC3)c(F)cc2c1=O` [Ciprofloxacin], in test [2], the “C: Acinetobacter (no irradiation), replication” value is given as “R (Bacteria can replicate after the treatment)” and the “D Acinetobacter (irradiation), replication” value was “NR (No replication)”. In test [3], the “A: Pseudomonas aeruginosa (no irradiation), replication” value was “R (Bacteria can replicate after the treatment)” and the “B: Pseudomonas aeruginosa” value is reported as “NR (No replication)”. Moreover, in test [1] (setting [17]), the MIC is above 16 µg/mL. Besides, the “E: Staphylococcus aureus MU500 (no irradiation), replication, second treatment” value in [4] (setting [10]) is “R (Bacteria can replicate after the treatment)”. Besides, in test [5], the “D Acinetobacter (irradiation), replication, second treatment” value is “NR (No replication)” and the “C: Acinetobacter (no irradiation), replication, second treatment” value is “R (Bacteria can replicate after the treatment)”. For the same compound, in [8], the “E: Staphylococcus aureus MU500 (no irradiation), replication” value was “R (Bacteria can replicate after the treatment)”.
As for `Cc1onc(-c2ccccc2)c1C(=O)N[C@@H]1C(=O)N2[C@@H]1SC(C)(C)[C@@H]2C(=O)O` [Oxacillin], the MIC in [1] (setting [17]) is above 32 µg/mL.
As for `CCn1cc(C(=O)O)c(=O)c2cc(F)c(N3CCNCC3)cc21` [Norfloxacin], the “C: Acinetobacter (no irradiation), replication” value in [2] is reported as “R (Bacteria can replicate after the treatment)”. Besides, in [2], the “D Acinetobacter (irradiation), replication” value is “NR (No replication)”. Moreover, the “A: Pseudomonas aeruginosa (no irradiation), replication” value in test [3] was “R (Bacteria can replicate after the treatment)”. In addition, in test [3], the “B: Pseudomonas aeruginosa” value was “NR (No replication)”. Moreover, the “difference in absorption values” value in test [6] (setting [12]) is given as −0.0491; in test [6] (D: control no pulse), 0.0039; in test [6] (setting [13]), −0.1879; in test [7] (setting [14]), −0.1198; in [7] (setting [15]), −0.1119; in test [7] (setting [16]) it was −0.0589. In addition, the “E: Staphylococcus aureus MU500 (no irradiation), replication” value in test [8] is on record as “R (Bacteria can replicate after the treatment)”. Also, the “F: Staphylococcus aureus MU500 (irradiation), replication” value in test [8] is given as “PR (Bacteria can replicate partially)”.
